Measurements as given in patent publication US20030108490A1, “Method and test kit for avoiding long-term failures in root canal treatments” (priority 2000, published 2003).
Several values for one entry are separate records, joined by “and”; a condition that tells them apart may be missing. Equal entries are not always repeated. Where two headings read alike, the source gives them in different places.

Experiments:
MMP-8 = settings: for MMP-8 detected in the root canals: pooled data
Excerpt: 10 patients (11 teeth), with noncontributory medical histories, suffering from apical periodontitis, were selected for the collection of the root canal exudate samples. […] The sample collection was done with the approval of Ethical Committee of Helsinki University Faculty of Medicine, and with the patient's informed consent. The samples were collected during three consecutive appointments with two-week intervals, during which the root canal treatment was completed.
Primary access to the pulp and root canals was made according to regular treatment protocol. The instrumentation of the root canal was started with size 20 or 25 ISO file. X-ray was taken to determine the preparation length. At that time point, a sterile paper point was inserted into the root canal up to the preparation length for two minutes to absorb exudate from the root canal and periapical lesion. The root canals were then instrumented according to standard root canal treatment protocol. Finally, CaOH2 paste was inserted into the canal, and the access cavity was sealed.
After two weeks the root canals were reopened. After quick drying of the canals, a sterile paper point was inserted into the canal for two min for the sample collection. If the canal appeared dry, a drop of sterile saline was inserted to allow the absorption of the sample into the paper point. The root canal was then rinsed, dried and CaOH2 paste was inserted into the canal. After two weeks the procedure for the sample collection was repeated, and the root canals were filled with gutta percha and sealer in normal fashion.
Concentration of MMP-8 in the samples was determined from the elution buffer by a time-resolved immunofluorescence assay as described previously (Hanemaaijer et al., 1997). The monoclonal MMP-8 specific 8708 and 8706 antibodies were used as a catching antibody and tracer antibody, respectively. The tracer antibody was labeled using europium chelate. The assay buffer contained 20 mM Tris-HCl, pH 7.5, 0.5 M NaCl, 5 mM CaCl2, 50 μM ZnCl2, 0.5% bovine serum albumin, 0.5% sodium azide, and 20 mg/l DTPA. Samples were diluted in assay buffer and incubated for one h, followed by incubation for one h with tracer antibody. Enhancement solution was added, and after 5 min fluorescence was measured using a 1234 Delfia Research Fluorometer (Wallac, Turku, Finland).
Kruskall-Wallis 1-way ANOVA was used to analyze the degree of difference in the MMP-8 levels between the different appointments within each sample site.

[1] = obturated after one week of intracanal disinfection; cited from earlier work
bacteria in the canals = settings: after 1-2 week medication, in most cases; cited from earlier work

[Ca+2].[OH-].[OH-] [Ca(OH)2, calcium hydroxide]
levels of MMP-8 in the exudate (MMP-8; patients with initially high levels (over 1000 ng/ml), second appointment, after two weeks of treatment): undetectable levels
MMP-8 detected in the root canals (MMP-8; necrotic teeth, after mechanical preparation and first local medication (2nd visit)): a relatively high amount of MMP-8 was detected
MMP-8 detected in the root canals (MMP-8; after renewal of the local medication for fortnight (3rd visit)): no longer detected
levels of MMP-8 in the root canal samples (MMP-8; two other patients with initial value of 0, second appointment): 100 to 1000 ng/mL
teeth that failed to show any healing in the periapical lesion area after one year [1]: 26% and 24%
cultivable bacteria in the canals (bacteria in the canals): no cultivable bacteria
